The text below walks through data of patent publication US20250352589A1, “OXYTOCIN-MIMETIC COMPOSITIONS AND USES THEREOF” (INSTITUT NATIONAL DE LA SANTÉ ET DE LA RECHERCHE MÉDICALE, priority 2021, published 2025).

For one assay, the target named is T1, human OT-R (Homo sapiens, UniProt P30559).
T1 construct: expressed in transfected cells; host or cells: HEK cells
T1 sequence (P30559 1-389): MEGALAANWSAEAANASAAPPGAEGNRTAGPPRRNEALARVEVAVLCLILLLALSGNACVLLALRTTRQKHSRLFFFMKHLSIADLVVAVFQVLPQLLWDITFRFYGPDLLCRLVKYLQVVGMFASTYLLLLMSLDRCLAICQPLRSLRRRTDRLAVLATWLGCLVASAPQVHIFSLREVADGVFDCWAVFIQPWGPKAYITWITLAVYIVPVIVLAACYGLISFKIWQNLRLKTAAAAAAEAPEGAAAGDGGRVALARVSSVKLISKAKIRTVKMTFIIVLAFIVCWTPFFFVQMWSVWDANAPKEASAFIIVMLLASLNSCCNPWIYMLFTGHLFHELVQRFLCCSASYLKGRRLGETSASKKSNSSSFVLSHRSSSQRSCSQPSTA
Nature of the assay: Activation of OT-R by bacterial peptides: calcium release from HEK cells transfected with human OT-R. The class given is cell-based. Particulars: for specific activation of OTR: OTR expressing HEK cells; for Emax: mean ± standard error, maximal amplitude of Ca2+ release, HEK cells expressing human OT-R; for activation of the oxytocin receptor: statement in the description, micromolar scale.

Another assay deals with anti-oxytocin antibodies. The assay is described as follows: Proteomic analysis: 2D gel and OT immunodetection (OT IgG) of bacterial proteomes. The class given is binding. As to the method: In this study, 14 bacteria-extracted proteomes were analyzed: (i) from 5 Bifidobacterium species grown in anaerobe conditions, (ii) from 5 Lactobacillus species grown in anaerobe culture conditions and (iii) from 4 aerotolerant Lactobacillus species grown in aerobe conditions. Each proteome analysis was performed in triplicate and was further separated in 3 fractions i.e. soluble (S), membrane (M), and residual (R) resulting in 9 samples/proteome). Each fraction was initially screened by western blot (WB) for the presence OT-like reactivity to validate it for further 2D-SDS-PAGE analysis. […] Finally, all fractions have been analyzed using 2D gel technique and OT immunodetection. 2D gel electrophoresis allowed to improve visibility of the less abundant proteins in a complex sample. Thereby, all samples were analyzed at least once with this method to scan optimally each proteome in the search for OT mimicry. […] The specificity for OT-like staining was controlled by pre-adsorption of OT-IgG with OT peptide.
All protein spots in silver nitrate staining gels corresponding to OT-like spots in the membrane were excised and analyzed by mass spectrometry

A further assay addresses human oxytocin receptor (human, UniProt P30559). The assay is described as follows: cell-based or functional assay.
[1] abbreviates: 2D-immunoblotting, spots identified by mass spectrometry.

Like-named read-outs stand apart in the source and are kept apart here.

As for `CSCC[C@H](NC(=O)[C@@H]1CCCN1C(=O)CNC(=O)[C@H](CC(N)=O)NC(=O)[C@H](Cc1c[nH]c2ccccc12)NC(=O)[C@@H](NC(=O)[C@@H](NC(=O)[C@@H](NC(=O)[C@@H](N)CCCCN)[C@@H](C)O)C(C)C)C(C)C)C(=O)NCC(=O)O` [Peptide 3], on human OT-R, the “specific activation of OTR” value is given as “specifically activated OTR”, the Emax is 302 ± 35.41 and the “activation of the oxytocin receptor” value is “strongly activate the oxytocin receptor at a micromolar scale”.

For `CC[C@H](C)[C@H](NC(=O)[C@H](Cc1ccc(O)cc1)NC(=O)[C@@H](N)CC(=O)O)C(=O)N[C@@H](CCCCN)C(=O)N[C@@H](CC(N)=O)C(=O)N[C@@H](CCSC)C(=O)N[C@H](C(=O)N[C@H](C(=O)NCC(=O)O)[C@@H](C)O)[C@@H](C)CC` [Peptide 8], at human OT-R, the “specific activation of OTR” value is on record as “specifically activated OTR”, the Emax stood at 140 ± 71.48 and the “activation of the oxytocin receptor” value is recorded as “strongly activate the oxytocin receptor at a micromolar scale”.

Consider Elongation factor Tu [SEQ ID NO:14], for which the “immune cross-reaction with anti-oxytocin antibodies” value (shortened to “immune cross-reaction”) in the assay with anti-oxytocin antibodies (setting [1]) was “immune cross-react with anti-oxytocin antibodies”.

Elongation factor Tu [SEQ ID NO:17]: in the assay on anti-oxytocin antibodies (setting [1]), the “immune cross-reaction” value was “immune cross-react with anti-oxytocin antibodies”.

Consider Enolase 2 [SEQ ID NO:8], for which the “immune cross-reaction” value in the assay on anti-oxytocin antibodies (setting [1]) is “immune cross-react with anti-oxytocin antibodies”.

On to “Glucose-6-phosphate isomerase [SEQ ID NO:18]”, for which the “immune cross-reaction” value in the assay with anti-oxytocin antibodies is given as “immune cross-react with anti-oxytocin antibodies”.

As to H-ATSKNCPIA-OH [Peptide 4], at human OT-R, the “specific activation of OTR” value is recorded as “specifically activated OTR” and the Emax was found to be 304.6 ± 29.70.

In the case of H-DFVKNMITG-OH [Peptide 17], the Emax on human OT-R is reported as 135.3 ± 8.92.

For H-DYVKNMITG-OH [Peptide 1], on human OT-R, the “specific activation of OTR” value is listed as “specifically activated OTR”, the Emax was 273.8 ± 35.03 and the “activation of the oxytocin receptor” value is reported as “strongly activate the oxytocin receptor at a micromolar scale”. The “most efficient OT-like peptides” value on human OT-R (judged by EC50 and maximal amplitude of Ca2+ release) was “most efficient”.

Take H-KFVNDNELG-OH [Peptide 2]: on human OT-R, the “specific activation of OTR” value was “specifically activated OTR”, the Emax is 164.8 ± 107.9 and the “activation of the oxytocin receptor” value is given as “strongly activate the oxytocin receptor at a micromolar scale”.

As for H-KQFVHENELG-OH [Peptide 7], on human OT-R, the “specific activation of OTR” value was “specifically activated OTR” and the Emax is on record as 262.8 ± 35.64.

In the case of H-KYIENISDE-OH [Peptide 14], on human OT-R, the “specific activation of OTR” value was “specifically activated OTR” and the Emax turned out to be 221.5 ± 10.40.

H-LTITNVPNS-OH [Peptide 5]: on human OT-R, the “specific activation of OTR” value was “specifically activated OTR” and the Emax is recorded as 272 ± 99.09.

Regarding H-QYIQEGR-OH [Peptide 6, H-QYIQEGR-OH], on human OT-R, the “specific activation of OTR” value is on record as “specifically activated OTR”, the Emax was found to be 99.42 ± 6.77 and the “activation of the oxytocin receptor” value is “strongly activate the oxytocin receptor at a micromolar scale”.

Consider H-SYFYNKEDG-OH [Peptide 10, LG], for which the “activation of the oxytocin receptor” value in the assay with human OT-R is recorded as “strongly activate the oxytocin receptor at a micromolar scale”.

With “H-VDIQEFMIMPVG-OH [Peptide 9, Enolase 2 fragment 160-171; LG]”, the “activation of the oxytocin receptor” value with human OT-R is reported as “strongly activate the oxytocin receptor at a micromolar scale”.

H-GFDRDCPVV-OH [OT-like peptide #16, Elongation factor Tu 164-172, H-GFDRDCPVV-OH]: the “Emax of calcium release” value with human oxytocin receptor came to 2.13.

Turning to H-KYIENISDE-OH, in the assay with human oxytocin receptor, the “EC50 of calcium release” value stood at 8.93 µM and the “Emax of calcium release” value turned out to be 222.

Consider H-DFVKNMITG-OH [OT-like peptide #17, Elongation factor Tu 89-97, H-DFVKNMITG-OH], for which, in the assay with human oxytocin receptor, the “EC50 of calcium release” value was 7.52 µM and the “Emax of calcium release” value is 135.

H-IYLRSNPLMK-OH [OT-like peptide #15, Probable phosphoketolase 40-49, H-IYLRSNPLMK-OH]: the “Emax of calcium release” value with human oxytocin receptor came out at 5.36.

As for H-KQFVHENELG-OH [OT-like peptide #7, Glucose-6-phosphate isomerase 12-21, H-KQFVHENELG-OH], in the assay with human oxytocin receptor, the “EC50 of calcium release” value was 2.57 µM and the “Emax of calcium release” value was 263.

Take H-KTVVWNGPMG-OH [OT-like peptide #3, Phosphoglycerate kinase 317-326, H-KTVVWNGPMG-OH]: in the assay with human oxytocin receptor, the “Emax of calcium release” value was determined as 302.

As for H-DYVKNMITG-OH [OT-like peptide #1, Elongation factor Tu 87-95, H-DYVKNMITG-OH], in the assay with human oxytocin receptor, the “EC50 of calcium release” value worked out at 2.77 µM and the “Emax of calcium release” value was found to be 274.

On to H-QYIQEGR-OH [OT-like peptide #6, Glucose-6-phosphate isomerase 313-319, H-QYIQEGR-OH], for which, in the assay with human oxytocin receptor, the “EC50 of calcium release” value is 3.79 µM and the “Emax of calcium release” value was 99.4.

Consider H-LTITNVPNS-OH, for which, in the assay with human oxytocin receptor, the “EC50 of calcium release” value was found to be 2.7 µM and the “Emax of calcium release” value was found to be 272.

Regarding H-DYIKNMITG-OH [OT-like peptide #8, Elongation factor Tu 88-96, H-DYIKNMITG-OH], the “Emax of calcium release” value with human oxytocin receptor was found to be 140.

For H-CYFEDAGA-OH [OT-like peptide #13, Triosephosphate isomerase 61-68, H-CYFEDAGA-OH], the “Emax of calcium release” value with human oxytocin receptor is 17.9.

Take H-VDIQEFMIMPVG-OH [OT-like peptide #9, Enolase 2 160-171, H-[…]-OH]: the “Emax of calcium release” value in the assay with human oxytocin receptor was 119.

For H-KFVNDNELG-OH [OT-like peptide #2, Glucose-6-phosphate isomerase 13-21, H-KFVNDNELG-OH], in the assay with human oxytocin receptor, the “EC50 of calcium release” value came out at 3.21 µM and the “Emax of calcium release” value came out at 165.

B1: Fructose tagatose bisphosphate aldolase (protein, listed as Lactobacillus camelliae)
chain: MFQAARKGHYAIGAFNTNNLEWTRALLKGAQELNVPILIQTSMGAAKYMGGYKLCKALIELEAESMNITVPVVIHLDHGNFEAAKEAIAAGYNSVMFDGHDLPFDENLEKTKEIVKLAHAKGISVEAEVGSIGGEEDGVIGEGELASVEEAKTLAATGIDFMAAGIGNIHGKYPSNWKGLHFDRLQEIADAVDLPLVLHGGSGIPQDQVEKAISMGIAKLNINTECQLAFAKATREYILANKDQEGKGYDPRKLLAPGTQAITDTFKEISGWMGTRPVKMVPEEIK
modifications: Fructose tagatose bisphosphate aldolase
notes: protein expressed by Lactobacillus camelliae
As for B1, in the assay on anti-oxytocin antibodies (setting [1]), the “immune cross-reaction” value was “immune cross-react with anti-oxytocin antibodies”.

Consider H-AYSPLGTGK-OH [OT-like peptide #12, 2,5-didehydrogluconate reductase 202-210, H-AYSPLGTGK-OH], for which, in the assay with human oxytocin receptor, the “Emax of calcium release” value was 5.25.

Turning to H-SYFYNKEDG-OH [OT-like peptide #10, Enolase 246-254, H-SYFYNKEDG-OH], the “Emax of calcium release” value in the assay with human oxytocin receptor was 41.6.

On to H-ATSKNCPIA-OH [OT-like peptide #4, GMP synthase [glutamine-hydrolyzing] 154-162, H-ATSKNCPIA-OH], for which, in the assay with human oxytocin receptor, the “EC50 of calcium release” value stood at 3.09 µM and the “Emax of calcium release” value was 305.

Regarding H-MFQAARKG-OH [OT-like peptide #11, Fructose tagatose bisphosphate aldolase 1-8, H-MFQAARKG-OH], the “Emax of calcium release” value in the assay with human oxytocin receptor worked out at 4.65.
